Reference: ChEMBL document CHEMBL5375992, “Design and Development of IKZF2 and CK1α Dual Degraders” (J Med Chem, 2023)
Converted amounts (≈) assume the structure as drawn. The source made the active and inactive calls. No cut-off for these calls is given here.

How the values were obtained:
[1] = molecular target: T1, Protein cereblon/Eukaryotic peptide chain release factor GTP-binding subunit ERF3A (Homo sapiens) (UniProt Q96SW2+P15170); experiment: Protac activity at CRBN/GSPT1 in human OCILY3 cells assessed as relative ratio at 10 nM incubated for 24 hrs by Western blotting analysis relative to DMSO; format: cell-based
T1 sequence (P15170 whole entry, looked up): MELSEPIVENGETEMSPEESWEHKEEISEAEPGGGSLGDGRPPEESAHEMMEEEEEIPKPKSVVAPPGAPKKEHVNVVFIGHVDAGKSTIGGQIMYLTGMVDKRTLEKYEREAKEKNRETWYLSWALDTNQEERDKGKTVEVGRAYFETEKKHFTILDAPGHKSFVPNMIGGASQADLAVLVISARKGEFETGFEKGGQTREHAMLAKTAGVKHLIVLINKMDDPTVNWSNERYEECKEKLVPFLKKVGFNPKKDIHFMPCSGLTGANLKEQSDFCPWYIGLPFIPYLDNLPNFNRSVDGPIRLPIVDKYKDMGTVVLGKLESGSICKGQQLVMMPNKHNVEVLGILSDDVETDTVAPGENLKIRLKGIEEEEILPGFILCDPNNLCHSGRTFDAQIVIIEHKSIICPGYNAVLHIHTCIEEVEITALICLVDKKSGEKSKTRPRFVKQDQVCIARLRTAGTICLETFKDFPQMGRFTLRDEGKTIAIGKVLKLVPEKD
T1 sequence (Q96SW2 whole entry, looked up): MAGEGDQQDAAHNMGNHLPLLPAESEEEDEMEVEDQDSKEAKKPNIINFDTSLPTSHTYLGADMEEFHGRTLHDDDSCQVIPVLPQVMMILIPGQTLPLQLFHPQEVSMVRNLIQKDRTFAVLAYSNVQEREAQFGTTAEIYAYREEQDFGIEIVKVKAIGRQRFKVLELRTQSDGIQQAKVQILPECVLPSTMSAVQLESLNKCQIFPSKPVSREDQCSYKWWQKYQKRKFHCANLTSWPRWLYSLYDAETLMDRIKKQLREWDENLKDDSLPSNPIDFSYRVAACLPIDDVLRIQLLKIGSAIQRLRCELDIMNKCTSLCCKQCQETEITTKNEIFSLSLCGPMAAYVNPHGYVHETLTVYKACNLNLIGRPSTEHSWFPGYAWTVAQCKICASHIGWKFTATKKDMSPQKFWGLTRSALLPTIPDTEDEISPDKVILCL

[2] = molecular target: T1, Protein cereblon/Eukaryotic peptide chain release factor GTP-binding subunit ERF3A (Homo sapiens); experiment: Protac activity at CRBN/GSPT1 in human OCILY3 cells assessed as relative ratio at 1 uM incubated for 24 hrs by Western blotting analysis relative to DMSO; format: cell-based
OCI-Ly3 [3] = experiment: Upregulation of p21 transcript level in human OCILY3 cells at 1 uM incubated for 24 hrs by RT-qPCR analysis; format: functional, cell-based
[4] = molecular target: T2, Cereblon/Casein kinase I alpha (Homo sapiens) (UniProt P48729+Q96SW2); experiment: Protac activity at CRBN/CK1alpha in human OCILY3 cells assessed as relative ratio at 10 uM incubated for 24 hrs by Western blotting analysis relative to DMSO; format: cell-based
T2 sequence (P48729 2-337 limits assumed): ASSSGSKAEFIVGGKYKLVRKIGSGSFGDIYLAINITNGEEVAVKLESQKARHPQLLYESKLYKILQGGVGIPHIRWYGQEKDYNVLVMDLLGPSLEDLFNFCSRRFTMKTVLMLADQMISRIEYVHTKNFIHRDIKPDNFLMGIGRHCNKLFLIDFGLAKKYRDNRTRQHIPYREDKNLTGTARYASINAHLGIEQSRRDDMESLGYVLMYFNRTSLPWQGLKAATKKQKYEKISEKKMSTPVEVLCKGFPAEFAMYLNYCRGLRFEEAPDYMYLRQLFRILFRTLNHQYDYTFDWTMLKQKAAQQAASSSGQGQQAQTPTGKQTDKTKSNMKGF
T2 sequence (Q96SW2 whole entry partner): as the sequence (Q96SW2 whole entry, looked up) above

[5] = Solubility of compound in DMSO; format: physicochemical; details: DMSO; read-out: solubility
A2780 [6] = experiment: Upregulation of p53 protein expression in human A2780 cells at […] incubated for 24 hrs by Western blot analysis; format: functional, cell-based
[7] = molecular target: T3, Protein cereblon/Zinc finger protein Helios (Homo sapiens) (UniProt Q96SW2+Q9UKS7); experiment: Protac activity at CRBN/IKZF2 (unknown origin) transfected in HEK293T cells at 100 nM incubated for 24 hrs by flow cytometry analysis relative to control; format: cell-based
T3 sequence (Q96SW2 whole entry, looked up): as above
T3 sequence (Q9UKS7 whole entry, looked up): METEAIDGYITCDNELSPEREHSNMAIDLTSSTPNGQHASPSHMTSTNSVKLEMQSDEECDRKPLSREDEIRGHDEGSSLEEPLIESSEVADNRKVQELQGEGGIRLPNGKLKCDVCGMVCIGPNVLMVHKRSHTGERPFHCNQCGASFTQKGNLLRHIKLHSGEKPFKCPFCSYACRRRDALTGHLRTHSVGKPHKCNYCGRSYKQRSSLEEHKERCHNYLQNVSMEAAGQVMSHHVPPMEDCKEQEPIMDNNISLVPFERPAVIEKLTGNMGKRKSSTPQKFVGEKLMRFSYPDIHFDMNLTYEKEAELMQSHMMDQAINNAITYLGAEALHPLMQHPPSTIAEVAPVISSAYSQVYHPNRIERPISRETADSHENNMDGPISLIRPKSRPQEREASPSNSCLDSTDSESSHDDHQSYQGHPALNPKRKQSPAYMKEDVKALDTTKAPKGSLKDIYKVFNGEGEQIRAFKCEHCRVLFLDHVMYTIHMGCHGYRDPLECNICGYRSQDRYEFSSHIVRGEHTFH

OCI-Ly3 [8] = experiment: Upregulation of MDM2 protein expression in human OCILY3 cells at […] incubated for 24 hrs by Western blot analysis; format: functional, cell-based
[9] = molecular target: T2, Cereblon/Casein kinase I alpha (Homo sapiens); experiment: Protac activity at CRBN/CK1alpha in human A2780 cells assessed as relative ratio at 1 uM incubated for 24 hrs by Western blotting analysis relative to DMSO; format: cell-based
OCI-Ly3 [10] = experiment: Upregulation of p21 protein expression in human OCILY3 cells at […] incubated for 24 hrs by Western blot analysis; format: functional, cell-based
A2780 [11] = experiment: Upregulation of Bax transcript level in human A2780 cells at 1 uM incubated for 24 hrs by RT-qPCR analysis; format: functional, cell-based
A2780 [12] = experiment: Cytotoxicity against human A2780 cells incubated for 5 days by MTT assay; format: functional, cell-based; details: A2780, 120 h
[13] = molecular target: T3, Protein cereblon/Zinc finger protein Helios (Homo sapiens); experiment: Protac activity at CRBN/IKZF2 in human A2780 cells assessed as relative ratio at 1 nM incubated for 24 hrs by Western blotting analysis relative to DMSO; format: cell-based
A2780 [14] = experiment: Upregulation of p21 protein expression in human A2780 cells at […] incubated for 24 hrs by Western blot analysis; format: functional, cell-based
[15] = molecular target: T3, Protein cereblon/Zinc finger protein Helios (Homo sapiens); experiment: Protac activity at CRBN/IKZF2 in human A2780 cells assessed as relative ratio at 10 uM incubated for 24 hrs by Western blotting analysis relative to DMSO; format: cell-based
[16] = molecular target: T2, Cereblon/Casein kinase I alpha (Homo sapiens); experiment: Protac activity at CRBN/CK1alpha in human A2780 cells assessed as relative ratio at 100 nM incubated for 24 hrs by Western blotting analysis relative to DMSO; format: cell-based
[17] = molecular target: T2, Cereblon/Casein kinase I alpha (Homo sapiens); experiment: Protac activity at CRBN/CK1alpha in human OCILY3 cells assessed as relative ratio at 100 nM incubated for 24 hrs by Western blotting analysis relative to DMSO; format: cell-based
[18] = molecular target: T2, Cereblon/Casein kinase I alpha (Homo sapiens); experiment: Protac activity at CRBN/CK1alpha in human A2780 cells assessed as relative ratio at 1 nM incubated for 24 hrs by Western blotting analysis relative to DMSO; format: cell-based
[19] = molecular target: Cereblon/Ikaros (Homo sapiens) (UniProt Q96SW2+Q13422); experiment: Protac activity at CRBN/IKZF1 (unknown origin) transfected in HEK293T cells at 100 nM incubated for 24 hrs by flow cytometry analysis relative to control; format: cell-based
[20] = molecular target: T1, Protein cereblon/Eukaryotic peptide chain release factor GTP-binding subunit ERF3A (Homo sapiens); experiment: Protac activity at CRBN/GSPT1 in human OCILY3 cells assessed as relative ratio at 100 nM incubated for 24 hrs by Western blotting analysis relative to DMSO; format: cell-based
[21] = molecular target: T3, Protein cereblon/Zinc finger protein Helios (Homo sapiens); experiment: Protac activity at CRBN/IKZF2 in human A2780 cells assessed as relative ratio at 10 nM incubated for 24 hrs by Western blotting analysis relative to DMSO; format: cell-based
[22] = molecular target: T1, Protein cereblon/Eukaryotic peptide chain release factor GTP-binding subunit ERF3A (Homo sapiens); experiment: Protac activity at CRBN/GSPT1 in human A2780 cells assessed as relative ratio at 1 nM incubated for 24 hrs by Western blotting analysis relative to DMSO; format: cell-based
[23] = molecular target: T2, Cereblon/Casein kinase I alpha (Homo sapiens); experiment: Protac activity at CRBN/CK1alpha (unknown origin) transfected in HEK293T cells at 100 nM incubated for 24 hrs by flow cytometry analysis relative to control; format: cell-based
[24] = molecular target: T3, Protein cereblon/Zinc finger protein Helios (Homo sapiens); experiment: Protac activity at CRBN/IKZF2 in human A2780 cells assessed as relative ratio at 1 uM incubated for 24 hrs by Western blotting analysis relative to DMSO; format: cell-based
[25] = molecular target: T2, Cereblon/Casein kinase I alpha (Homo sapiens); experiment: Protac activity at CRBN/CK1alpha in human A2780 cells assessed as relative ratio at 10 uM incubated for 24 hrs by Western blotting analysis relative to DMSO; format: cell-based
[26] = molecular target: T1, Protein cereblon/Eukaryotic peptide chain release factor GTP-binding subunit ERF3A (Homo sapiens); experiment: Protac activity at CRBN/GSPT1 in human A2780 cells assessed as relative ratio at 100 nM incubated for 24 hrs by Western blotting analysis relative to DMSO; format: cell-based
A2780 [27] = experiment: Upregulation of MDM2 protein expression in human A2780 cells at […] incubated for 24 hrs by Western blot analysis; format: functional, cell-based
[28] = molecular target: T3, Protein cereblon/Zinc finger protein Helios (Homo sapiens); experiment: Protac activity at CRBN/IKZF2 in human A2780 cells assessed as relative ratio at 100 nM incubated for 24 hrs by Western blotting analysis relative to DMSO; format: cell-based
[29] = molecular target: T1, Protein cereblon/Eukaryotic peptide chain release factor GTP-binding subunit ERF3A (Homo sapiens); experiment: Protac activity at CRBN/GSPT1 in human A2780 cells assessed as relative ratio at 10 uM incubated for 24 hrs by Western blotting analysis relative to DMSO; format: cell-based
[30] = molecular target: T2, Cereblon/Casein kinase I alpha (Homo sapiens); experiment: Protac activity at CRBN/CK1alpha in human OCILY3 cells assessed as relative ratio at 1 nM incubated for 24 hrs by Western blotting analysis relative to DMSO; format: cell-based
[31] = molecular target: T1, Protein cereblon/Eukaryotic peptide chain release factor GTP-binding subunit ERF3A (Homo sapiens); experiment: Protac activity at CRBN/GSPT1 in human OCILY3 cells assessed as relative ratio at 1 nM incubated for 24 hrs by Western blotting analysis relative to DMSO; format: cell-based
A2780 [32] = experiment: Upregulation of p21 transcript level in human A2780 cells at 1 uM incubated for 24 hrs by RT-qPCR analysis; format: functional, cell-based
OCI-Ly3 [33] = experiment: Cytotoxicity against human OCILY3 cells incubated for 5 days by MTT assay; format: functional, cell-based; details: OCI-Ly3, 120 h
OCI-Ly3 [34] = experiment: Upregulation of Bax transcript level in human OCILY3 cells at 1 uM incubated for 24 hrs by RT-qPCR analysis; format: functional, cell-based
OCI-Ly3 [35] = experiment: Upregulation of Bax protein expression in human OCILY3 cells at […] incubated for 24 hrs by Western blot analysis; format: functional, cell-based
[36] = molecular target: T2, Cereblon/Casein kinase I alpha (Homo sapiens); experiment: Protac activity at CRBN/CK1alpha in human OCILY3 cells assessed as relative ratio at 1 uM incubated for 24 hrs by Western blotting analysis relative to DMSO; format: cell-based
OCI-Ly3 [37] = experiment: Upregulation of p53 protein expression in human OCILY3 cells at […] incubated for 24 hrs by Western blot analysis; format: functional, cell-based
[38] = molecular target: T1, Protein cereblon/Eukaryotic peptide chain release factor GTP-binding subunit ERF3A (Homo sapiens); experiment: Protac activity at CRBN/GSPT1 in human OCILY3 cells assessed as relative ratio at 10 uM incubated for 24 hrs by Western blotting analysis relative to DMSO; format: cell-based
[39] = molecular target: T1, Protein cereblon/Eukaryotic peptide chain release factor GTP-binding subunit ERF3A (Homo sapiens); experiment: Protac activity at CRBN/GSPT1 in human A2780 cells assessed as relative ratio at 10 nM incubated for 24 hrs by Western blotting analysis relative to DMSO; format: cell-based
[40] = molecular target: T1, Protein cereblon/Eukaryotic peptide chain release factor GTP-binding subunit ERF3A (Homo sapiens); experiment: Protac activity at CRBN/GSPT1 (unknown origin) transfected in HEK293T cells at 100 nM incubated for 24 hrs by flow cytometry analysis relative to control; format: cell-based
A2780 [41] = experiment: Upregulation of Bax protein expression in human A2780 cells at […] incubated for 24 hrs by Western blot analysis; format: functional, cell-based
[42] = molecular target: T1, Protein cereblon/Eukaryotic peptide chain release factor GTP-binding subunit ERF3A (Homo sapiens); experiment: Protac activity at CRBN/GSPT1 in human A2780 cells assessed as relative ratio at 1 uM incubated for 24 hrs by Western blotting analysis relative to DMSO; format: cell-based
[43] = molecular target: T1, Protein cereblon/Eukaryotic peptide chain release factor GTP-binding subunit ERF3A (Homo sapiens); experiment: Protac activity at CRBN/GSPT1 in human NCI-H1048 cells at 10 to 100 nM incubated for 24 hrs by Western blotting analysis; format: cell-based; details: dose 10-100 nM
[44] = molecular target: T2, Cereblon/Casein kinase I alpha (Homo sapiens); experiment: Protac activity at CRBN/CK1alpha in human A2780 cells assessed as relative ratio at 10 nM incubated for 24 hrs by Western blotting analysis relative to DMSO; format: cell-based
[45] = molecular target: T2, Cereblon/Casein kinase I alpha (Homo sapiens); experiment: Protac activity at CRBN/CK1alpha in human OCILY3 cells assessed as relative ratio at 10 nM incubated for 24 hrs by Western blotting analysis relative to DMSO; format: cell-based
[46] = molecular target: T2, Cereblon/Casein kinase I alpha (Homo sapiens); experiment: Protac activity at CRBN/CK1alpha in human MOLM-13 cells at 50 nM incubated for 2 hrs by proteomic analysis; format: cell-based

In the case of COc1cccc2c1OCC(C(=O)Nc1ccc3c(c1)CN(C1CCC(=O)NC1=O)C3=O)=C2 (stereo unspecified), the Ratio [1] is reported as 0.67, the Ratio [2] is reported as 0.73 and the Activity (OCI-Ly3 [3]) is reported as “Active”. The Ratio [4] was 0.27, the solubility [5] was 50 mM (≈ 22.4 mg/mL) and the Activity (A2780 [6]) was “Active”. The Activity [7] was 82%, the Activity (OCI-Ly3 [8]) was “Active” and the Ratio [9] was 0.17. For the same compound, the Activity (OCI-Ly3 [10]) was “Active”, the Activity (A2780 [11]) was “Active” and the EC50 (A2780 [12]) was 27 nM. The Ratio [13] was 1, the Activity (A2780 [14]) was “Active” and the Ratio [15] was 0.06. The Ratio [16] was 0.18, the Ratio [17] was 0.25 and the Ratio [18] was 0.5. For the same compound, the Activity [19] was 11%, the Ratio [20] was 0.65 and the Ratio [21] was 0.77. For the same compound, the Ratio [22] was 0.96, the Activity [23] was 80% and the Ratio [24] was 0.08. The Ratio [25] was 0.17, the Ratio [26] was 0.9 and the Activity (A2780 [27]) was “Active”. It also gave a Ratio [28] of 0.24, a Ratio [29] of 1 and a Ratio [30] of 0.63. The Ratio [31] was 0.83, the Activity (A2780 [32]) was “Active” and the EC50 (OCI-Ly3 [33]) was 14 nM. The Activity (OCI-Ly3 [34]) was “Active”, the Activity (OCI-Ly3 [35]) was “Active” and the Ratio [36] was 0.26. For the same compound, the Activity (OCI-Ly3 [37]) was “Active”, the Ratio [38] was 0.8 and the Ratio [39] was 0.9. The Activity [40] was 4%, the Activity (A2780 [41]) was “Active” and the Ratio [42] was 1. The Activity [43] was “inactive”, the Ratio [44] was 0.22 and the Ratio [45] was 0.28. For the same compound, the Activity [46] was “Active”.
